Laboratory results: PubChem BioAssay (NCI)
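Cells were grown in 96-well plates and exposed to each compound for 48 hours at five concentrations; endpoints were interpolated linearly between bracketing concentrations, or set to the highest concentration if not reached. GI50 = concentration required for 50% inhibition of growth. At the TGI there is no net growth.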

Key:
Assay in all cases: NCI anticancer screen, dose series, 48 h
[1] = tested on: CAKI-1 renal
[2] = tested on: OVCAR-5 ovarian
[3] = tested on: NCI-H460 lung
[4] = tested on: SK-OV-3 ovarian
[5] = tested on: HL-60(TB) leukemia
[6] = tested on: OVCAR-4 ovarian
[7] = tested on: RPMI-8226 leukemia
[8] = tested on: UO-31 renal
[9] = tested on: NCI/ADR-RES ovarian
[10] = tested on: MCF7 breast

Row | Compound | TGI [1] | TGI [2] | TGI [3] | TGI [4] | TGI [5] | TGI [6] | TGI [7] | TGI [8] | TGI [9] | TGI [10] | GI50 [1] | GI50 [2] | GI50 [3] | GI50 [4] | GI50 [5] | GI50 [6] | GI50 [7] | GI50 [8] | GI50 [9]
1 | CCCCCCCCCCCCSC(=S)c1c(C)[nH]n(CCCCCCCCCCCC)c1=O | > 100 µM | > 100 µM | > 100 µM | > 100 µM | > 100 µM | > 100 µM | > 100 µM | > 100 µM |  |  |  |  |  |  |  |  |  |  | 
2 | O=C1CS(=O)(=O)C(c2cccc(Oc3ccccc3)c2)N1C1CC1 (stereo not given) |  | > 100 µM | > 100 µM | 67.7 µM | > 100 µM | 64.2 µM |  | > 100 µM | > 100 µM | 58 µM |  |  |  |  |  |  |  |  | 
3 | Cc1cn(Cc2cn(CC3OC(n4cc(C)c(=O)[nH]c4=O)CC3O)nn2)c(=O)[nH]c1=O (stereo not given) | > 100 µM | > 100 µM |  | > 100 µM |  | > 100 µM | > 100 µM | > 100 µM | > 100 µM | > 100 µM |  |  |  |  |  |  |  |  | 
4 | CCN(CCO)CCNc1ccc(C)c2sc3ccccc3c(=O)c12 | 12.6 µM | 12.5 µM | 3.88 µM | 18.1 µM | 11.3 µM | 21.7 µM | 20.3 µM | 15 µM | 11.7 µM | 3.24 µM |  |  |  |  |  |  |  |  | 
5 | O=C([CH-]C(=O)c1ccccc1)c1ccccc1.O=C([CH-]C(=O)c1ccccc1)c1ccccc1.O=C([CH-]C(=O)c1ccccc1)c1ccccc1.[Cl-].[Hf+4] | 52.4 µM | > 100 µM | 67.7 µM | 62.3 µM | > 100 µM | > 100 µM | 82.1 µM | 96.9 µM |  |  | 14.2 µM | 30.8 µM | 13.1 µM | 22.7 µM | 18.1 µM | 14.6 µM | 13.5 µM | 26.8 µM | 
6 | Cn1c2cn[nH]c(=O)c2c2ccc3ccccc3c21 | > 100 µM | > 100 µM | > 100 µM | > 100 µM | > 100 µM | > 100 µM | > 100 µM | 70.6 µM | > 100 µM | > 100 µM |  |  |  |  |  |  |  |  | 
7 | O=C(O)CCCN=C(C1=C(O)C(=O)N(c2ccccc2)C1=O)c1ccccc1 | > 100 µM | > 100 µM | > 100 µM | > 100 µM | > 100 µM | > 100 µM | > 100 µM | > 100 µM | > 100 µM | > 100 µM |  |  |  |  |  |  |  |  | 
8 | O=c1[nH]c(=O)n(CCOCP(=O)(O)O)nc1Br | > 100 µM | > 100 µM | > 100 µM |  | > 100 µM |  | > 100 µM | > 100 µM | > 100 µM | > 100 µM |  |  |  |  |  |  |  |  | 
9 | Cc1cc(=O)n2c3c(c4c(cc13)c(CN(C)C)cc(=O)n4C)OC2 | 97 µM | > 77 µM | > 100 µM | > 94.7 µM | > 100 µM | > 77.9 µM | > 100 µM | > 89.8 µM | > 76.9 µM | > 60.5 µM |  |  |  |  |  |  |  |  | 
10 | CCCCCCCCCCCCCCCCCC(=O)OCC1OC(OC)C(NC(=O)N(CCCl)N=O)C(O)C1O (stereo not given) | > 100 µM | > 100 µM | 33.5 µM |  |  | 76.1 µM | 85.8 µM | 56.8 µM |  |  |  |  |  |  |  |  |  |  | 
11 | O=c1[nH]c2cc([N+](=O)[O-])c(N/N=C/c3ccc(Cl)cc3Cl)c([N+](=O)[O-])c2[nH]1 | > 100 µM | > 100 µM | > 100 µM | 77.5 µM | > 100 µM | 94.6 µM | > 100 µM | > 100 µM | > 100 µM | > 100 µM |  |  |  |  |  |  |  |  | 
12 | CC(C)(C)c1cc(-c2nc3ccc(N4CCN(CCO)CC4)cc3[nH]2)cc(C(C)(C)C)c1O | 4.45 µM |  |  | 86.1 µM | 4.86 µM |  |  |  | > 100 µM |  | 1.97 µM |  |  | 12.7 µM | 1.84 µM |  |  |  | > 100 µM
13 | N=C(N)c1ccc(N=Nc2c(O)ccc3cc4c(N=Nc5ccc(C(=N)N)cc5)c(O)ccc4cc23)cc1 | > 100 µM | > 100 µM | > 100 µM | > 100 µM | 84.6 µM | > 100 µM | > 100 µM | > 100 µM | > 100 µM | > 100 µM |  |  |  |  |  |  |  |  | 
14 | C/C(=C\C(=N\NC(=N)N)c1ccccc1)c1ccccc1 | 1.59 µM | 3.35 µM | 11.1 µM | 15.7 µM |  | 3.16 µM | 8.41 µM |  | 10.1 µM | 1.58 µM |  |  |  |  |  |  |  |  | 
15 | O=C(NC(Cc1ccc(Cl)cc1)C(=O)O)c1ccc(I)cc1 (stereo not given) | > 100 µM | > 100 µM | > 100 µM | > 100 µM | > 100 µM | > 100 µM | > 100 µM | > 100 µM | > 100 µM | > 100 µM |  |  |  |  |  |  |  |  | 
